The values below come from ChEMBL document CHEMBL1124295, “Synthesis and oral antiallergic activity of carboxylic acids derived from imidazo[2,1-c][1,4]benzoxazines, imidazo[1,2-a]quinolines, imidazo[1,2-a]quinoxalines, imidazo[1,2-a]quinoxalinones, pyrrolo[1,2-a]quinoxalinones, pyrrolo[2,3-a]quinoxalinones, and imidazo[2,1-b]benzothiazoles” (1988).

Active and inactive are the calls of the source. No cut-off for these calls is given here.

Test [1] has as its system Rattus norvegicus. Kind of test: Inhibition of the IgE-mediated passive cutaneous anaphylaxis (PCA) reaction in rat after intravenous administration; Range 0.24-1.05. Type of test: functional.
For test [2], the system named is Rattus norvegicus. Kind of test: Inhibition of the IgE-mediated passive cutaneous anaphylaxis (PCA) reaction in rat after oral administration; Inactive at 1 and 10 mg/kg. It is filed as functional, organism-based. Also noted: dose 10 mg/kg.
The test system of test [3] is Rattus norvegicus. Kind of test: Inhibition of the IgE-mediated passive cutaneous anaphylaxis (PCA) reaction in rat after intravenous administration; Range 0.24-0.39. Type of test: functional.
Test [4] relates to Rattus norvegicus. Put plainly: Inhibition of the IgE-mediated passive cutaneous anaphylaxis (PCA) reaction in rat after oral administration; Range 0.29-0.4. It is filed as functional.
For test [5], the system named is Rattus norvegicus. Kind of test: Inhibition of the IgE-mediated passive cutaneous anaphylaxis (PCA) reaction in rat after intravenous administration; Inactive at 1 and 10 mg/kg. Type of test: functional, organism-based. Also noted: dose 10 mg/kg.
Test [6] concerns Rattus norvegicus. Put plainly: Inhibition of the IgE-mediated passive cutaneous anaphylaxis (PCA) reaction in rat after intravenous administration; Range 0.023-0.11. Type of test: functional.
The test system of test [7] is Rattus norvegicus. Put plainly: Inhibition of the IgE-mediated passive cutaneous anaphylaxis (PCA) reaction in rat after oral administration; Inactive. It is filed as functional, organism-based.
The test system of test [8] is Rattus norvegicus. Put plainly: Inhibition of the IgE-mediated passive cutaneous anaphylaxis (PCA) reaction in rat after intravenous administration; Range 0.25-0.41. Type of test: functional.
Test [9] deals with Rattus norvegicus. Kind of test: Inhibition of the IgE-mediated passive cutaneous anaphylaxis (PCA) reaction in rat after intravenous administration; NA means inactive at 1 and 10 mg/Kg. It is filed as functional, organism-based.
The subject of test [10] is Rattus norvegicus. Put plainly: Inhibition of the IgE-mediated passive cutaneous anaphylaxis (PCA) reaction in rat after oral administration; Range 0.4-2.34. Type of test: functional.
Test [11] has as its system Rattus norvegicus. Put plainly: Inhibition of the IgE-mediated passive cutaneous anaphylaxis (PCA) reaction in rat after intravenous administration; Range 0.058-0.15. Type of test: functional.
Test [12] concerns Rattus norvegicus. Put plainly: Inhibition of the IgE-mediated passive cutaneous anaphylaxis (PCA) reaction in rat after oral administration; Inactive(50% inhibition at 10 mg/kg). Type of test: functional.
Test [13] concerns Rattus norvegicus. Put plainly: Inhibition of the IgE-mediated passive cutaneous anaphylaxis (PCA) reaction in rat after oral administration; Inactive at 10 mg/kg. Type of test: functional, organism-based. Also on record: dose 10 mg/kg.
The test system of test [14] is Rattus norvegicus. Put plainly: Inhibition of the IgE-mediated passive cutaneous anaphylaxis (PCA) reaction in rat after intravenous administration; Range 2.91-4.95. It is filed as functional.
Test [15] has as its system Rattus norvegicus. Kind of test: Inhibition of the IgE-mediated passive cutaneous anaphylaxis (PCA) reaction in rat after intravenous administration; Range 0.021-0.03. It is filed as functional.
The test system of test [16] is Rattus norvegicus. Kind of test: Inhibition of the IgE-mediated passive cutaneous anaphylaxis (PCA) reaction in rat after intravenous administration; Range 0.12-0.35. Type of test: functional.
The test system of test [17] is Rattus norvegicus. Put plainly: Inhibition of the IgE-mediated passive cutaneous anaphylaxis (PCA) reaction in rat after intravenous administration; Range 0.02-0.38. It is filed as functional.
The subject of test [18] is Rattus norvegicus. Kind of test: Inhibition of the IgE-mediated passive cutaneous anaphylaxis (PCA) reaction in rat after intravenous administration; Range 0.021-0.033. Type of test: functional.
The subject of test [19] is Rattus norvegicus. Kind of test: Inhibition of the IgE-mediated passive cutaneous anaphylaxis (PCA) reaction in rat after oral administration; Range 0.07-0.4. Type of test: functional.
Test [20] has as its system Rattus norvegicus. Put plainly: Inhibition of the IgE-mediated passive cutaneous anaphylaxis (PCA) reaction in rat after oral administration; NA means inactive at 1 and 10 mg/Kg. It is filed as functional, organism-based.
The test system of test [21] is Rattus norvegicus. Put plainly: Inhibition of the IgE-mediated passive cutaneous anaphylaxis (PCA) reaction in rat after intravenous administration; Range 0.20-0.35. It is filed as functional.
Test [22] relates to Rattus norvegicus. Kind of test: Inhibition of the IgE-mediated passive cutaneous anaphylaxis (PCA) reaction in rat after intravenous administration; Range 0.022-0.04. Type of test: functional.

A word on the ED50: it is the dose that gives a 50% effect, or the effect in half of the subjects. The term inhibition in vivo denotes the drop in the measured response relative to a control, in per cent.

In the case of `O=C(Nc1nn[nH]n1)c1cn2c(cnc3ccccc32)n1`, the ED50 in [1] turned out to be 0.45 mg/kg. Moreover, the ED50 entry in test [2] is “inactive”.

As to `O=C(O)c1cn2c(ccc3ccccc32)n1`, the ED50 worked out at 0.3 mg/kg in test [3] and 0.34 mg/kg in test [4].

As for `CCOC(=O)c1cn2ccccc2n1`, in test [5], the ED50 result is “inactive”.

For `CSc1cc2nc(C(=O)O)cn2c2ccccc12`, the ED50 in test [6] stood at 0.046 mg/kg.

For the molecule `CCOC(=O)c1cn2c3ccccc3c(=O)n(CC)c2n1`, the ED50 result in [7] is “inactive”.

The molecule `CCn1c(=O)c2nc(C(=O)Nc3nn[nH]n3)cn2c2ccccc21` yielded an ED50 in test [8] of 0.32 mg/kg.

For `O=C(O)c1nc2n(c1C(=O)N1CCOCC1)-c1ccccc1OC2`, the ED50 entry in test [9] was “inactive”.

As for `COc1ccc2c(OC)cc3nc(C(=O)O)cn3c2c1`, the ED50 result in [2] was “inactive”.

For `O=C(O)c1cn2c(n1)c(-c1ccccc1)cc1ccccc12`, the ED50 result in test [5] was “inactive”.

For `Cl.Cl.NCc1cn2c(ccc3ccccc32)n1`, in test [10], the ED50 was determined as 0.976 mg/kg.

Take `O=C(O)c1nc(Cc2ccccc2)n2c1c(O)nc1ccccc12`: the ED50 entry in [2] was “inactive”.

The molecule `CSc1ccc2ccc3nc(C(=O)O)cn3c2c1` yielded an ED50 in test [11] of 0.095 mg/kg.

Molecule `COc1ccc2c(OC(C)C)cc3nc(C(=O)O)cn3c2c1` had an inhibition in vivo at 10 mg/kg in [12] of 50%.

For `COc1ccc2ccc3nc(C(=O)Nc4nn[nH]n4)cn3c2c1`, in [5], the ED50 entry was “inactive”.

Consider `O=C(O)c1cn2c(n1)c(O)nc1cc(Cl)c(Cl)cc12`, for which the ED50 result in test [13] was “inactive”.

In the case of `CCOC(=O)c1cn2c(n1)c(=O)n(Cc1ccccc1)c1ccccc12`, the ED50 entry in [13] was “inactive”.

In the case of `CCc1nc(C(=O)O)c2c(O)nc3ccccc3n12`, the ED50 result in [5] was “inactive”.

As for `O=C(O)c1cn2c(ccc3c(Cl)cccc32)n1`, the ED50 in test [14] worked out at 3.74 mg/kg.

Molecule `CS(=O)(=O)c1ccc2ccc3nc(C(=O)O)cn3c2c1` showed an inhibition in vivo at 10 mg/kg in [12] of 50%. The molecule further returned an ED50 in [15] of 0.028 mg/kg.

In test [16], `O=C(O)c1cn2c(cnc3cc(Cl)c(Cl)cc32)n1` showed an ED50 of 0.2 mg/kg. Further, the ED50 entry in test [2] is “inactive”.

On to `O=C(O)c1cnc2n1-c1ccccc1OC2`, for which the ED50 result in test [9] was “inactive”.

Take `OCc1cn2c(cc(Cl)c3ccc(Cl)cc32)n1`: the median effective dose (ED50) in test [17] was found to be 0.16 mg/kg.

In the case of `COc1ccc2c(Cl)cc3nc(C(=O)O)cn3c2c1`, the ED50 in test [18] stood at 0.027 mg/kg; in [19] it was 0.34 mg/kg.

For the molecule `O=C(O)c1cc2c(ccc3ccccc32)s1`, in test [5], the ED50 entry is “inactive”.

As for `c1ccc2c(c1)OCc1nc(-c3nn[nH]n3)cn1-2`, the ED50 result in [20] is “inactive”.

`O=C(O)c1cn2c(ccc3cc([N+](=O)[O-])ccc32)n1` gave an ED50 in test [21] of 0.28 mg/kg.

With `O=C(O)c1cn2c(n1)c(CO)cc1ccccc12`, in test [5], the ED50 entry was “inactive”.

In the case of `O=C(O)c1nc2n(c1CO)-c1ccccc1OC2`, in test [20], the ED50 result is “inactive”.

On to `Cc1c(C(=O)O)nc2cc(Cl)c3ccccc3n12`, for which the ED50 result in test [2] is “inactive”.

`CCn1c(=O)c2cc(C(=O)O)cn2c2cc(C)c(C)cc21` registered a median effective dose (ED50) in test [22] of 0.03 mg/kg.

On to `O=C(O)c1cn2ccc3ccccc3c2n1`, for which the ED50 result in test [9] was “inactive”.

As for `O=C(O)Cc1cn2c(n1)COc1ccccc1-2`, in test [9], the ED50 result was “inactive”.

For `NC(=O)c1cn2c(ccc3ccccc32)n1`, the ED50 entry in [20] was “inactive”.

As to `C[S+](=N)([O-])c1ccc2ccc3nc(C(=O)O)cn3c2c1` (centres undefined), the 50% effect level in [11] (ED50) was put at a dose of 0.095 mg/kg.
